Measured values from patent publication US11278543B2, “Inhibitors of the PP1/GADD34 complex for the treatment of a condition requiring an immunosuppressive activity” (INSERM, priority 2009, dated 2022).

Legend:
[1] = tested on: P-eIF2-α; assay: eIF2-α phosphorylation (P-eIF2-α) immunoblot in DCs; type: cell-based, mouse; settings: for eIF2-α phosphorylation in presence of soluble poly I:C: DCs activated with soluble poly I:C 24 h, 75 μM salubrinal for the last 4 h
Experimental: (§1) Bone marrow-derived DCs were obtained and cultured as described previously^50. NIH3T3 cells were cultured in RPMI 1640 (GIBCO) supplemented with 10% FCS (HyClone, PERBIO), 100 units/ml penicillin and 100 μg/ml streptomycin (GIBCO). Wild-type and PKR^−/− MEFs (from Caetano Reis e Sousa) were cultured in DMEM, 10% FCS, pen/strep. Wild-type and GCN2^−/− MEFs (from David Ron) were cultured in RPMI, 10% FCS, pen/strep, MEM non-essential amino acids (GIBCO), 55 μM beta-mercaptoethanol. For the tryptophan starvation experiments, MEFs and DCs were cultured for the indicated time in RPMI 1640 Tryptophan—medium (21875, GIBCO). All cells were cultured at 37° C. and 5% CO2.
(§2) MEFs, NIH3T3 and immature DCs were treated for the indicated time with 10 μg/ml poly I:C (InvivoGen), alone or in combination with lipofectamine 2000 (Invitrogen). 2 μg/ml tunicamycin (SIGMA) was added to DCs for 2 h; 2 μM MG132 (BIOMOL International) was added to DCs and NIH3T3 4 h before harvesting; 75 μM salubrinal (Calbiochem) or 100 nM tautomycin (Calbiochem) were added to DCs 4 h before harvesting; 500 μM sodium arsenite (SIGMA) was added for 30 min to DCs, NIH3T3 and MEFs; 50 μM LY294002 (Calbiochem) was added to DCs 1 h before harvesting. Immature DCs were treated for the indicated time with 100 ng/ml LPS (SIGMA).
(§3) Cells were lysed in 1% Triton X-100, 50 mM Hepes, 10 mM NaCl, 2.5 mM MgCl2, 2 mM EDTA, 10% glycerol, 1 mM PMSF, supplemented with Complete Mini Protease Inhibitor Cocktail Tablets (Roche). Protein quantification was performed using the BCA Protein Assay (Pierce). 25-50 μg of Triton X-100-soluble material were loaded on 2%-12% gradient SDS-PAGE before immunoblotting and chemiluminescence detection (SuperSignal West Pico Chemiluminescent Substrate, Pierce). Nuclear extraction was performed using the Nuclear Complex Co-IP kit (Active Motif). Rabbit polyclonal antibodies against ATF4 (CREB-2, C-20) and eIF2α (FL-315) were from Santa Cruz Biotechnology, as well as mouse monoclonal against GADD34 (C-19) and PKR (B-10). Rabbit polyclonal antibodies against P-eIF2α (Ser 51) and caspase-3 were from BioSource and Cell Signaling Technology respectively. Mouse monoclonal antibodies against β-actin and histone H1 were from SIGMA and Upstate respectively. Secondary antibodies were from Jackson ImmunoResearch Laboratories. Quantification of eIF2α phosphorylation was performed using the Multi Gauge software (Fujifilm).

[2] = tested on: IFN-β; assay: IFN-β ELISA in culture supernatant of activated DCs; type: cell-based, mouse; settings: poly I:C (or LPS) 8 h, salubrinal added 2 h before stimulation
Experimental: (§4) […] Immature DCs were treated for the indicated time with 100 ng/ml LPS (SIGMA).
IFN-β quantification in culture supernatant of DCs (5 fold-diluted) was performed using the Mouse Interferon Beta ELISA kit (PBL InterferonSource) according to manufacturer instructions.

[3] = tested on: caspase-3; assay: Caspase-3 level and cleavage by immunoblot in DCs; type: cell-based, mouse
Experimental: as §4, §3

[4] = tested on: DCs; assay: Translation intensity measurement by puromycin labelling in DCs; type: cell-based, mouse
Experimental: as §2, with “[…];” for “75 μM salubrinal (Calbiochem) or 100 nM tautomycin (Calbiochem) were added to DCs 4 h before harvesting;”
Puromycin labelling for measuring the intensity of translation was performed using 10 μg/ml puromycin (SIGMA, min 98% TLC, cell culture tested, P8833, diluted in PBS) was added in the culture medium and the cells were incubated for 10 min at 37° C. and 5% CO2. Where indicated, 25 μM cycloheximide (SIGMA) was added 5 min before puromycin. Cells were then harvested, centrifugated at 4° C. and washed with cold PBS prior to cell lysis and immunoblotting with the 12D10 antibody.
Cells were lysed in 1% Triton X-100, 50 mM Hepes, 10 mM NaCl, 2.5 mM MgCl2, 2 mM EDTA, 10% glycerol, 1 mM PMSF, supplemented with Complete Mini Protease Inhibitor Cocktail Tablets (Roche). Protein quantification was performed using the BCA Protein Assay (Pierce). […] Quantification of eIF2α phosphorylation was performed using the Multi Gauge software (Fujifilm).

[5] = tested on: DCs; assay: Stress granule formation in DCs (mRNA in situ hybridization, confocal microscopy); type: cell-based, mouse
[6] = tested on: ATF4; assay: ATF4 protein immunoblot in nuclear extract of DCs; type: cell-based, mouse; settings: poly I:C, 8 h
Experimental: as §2
Cells were lysed in 1% Triton X-100, 50 mM Hepes, 10 mM NaCl, 2.5 mM MgCl2, 2 mM EDTA, 10% glycerol, 1 mM PMSF, supplemented with Complete Mini Protease Inhibitor Cocktail Tablets (Roche). Protein quantification was performed using the BCA Protein Assay (Pierce). 25-50 μg of Triton X-100-soluble material were loaded on 2%-12% gradient SDS-PAGE before immunoblotting and chemiluminescence detection (SuperSignal West Pico Chemiluminescent Substrate, Pierce). Nuclear extraction was performed using the Nuclear Complex Co-IP kit (Active Motif). […] Quantification of eIF2α phosphorylation was performed using the Multi Gauge software (Fujifilm).

[7] = tested on: DCs; assay: mRNA quantification by real-time RT-PCR in poly I:C stimulated DCs; type: cell-based, mouse; settings: qPCR
Experimental: as §2
Total RNA was isolated from DCs using the RNeasy miniprep kit (Qiagen). cDNA was synthesized from RNA samples using the Superscript II reverse transcriptase (Invitrogen). Quantitative real-time PCR was carried out in complete SYBR Green PCR buffer (PE Biosystem) by using 200 nM of each specific primer. A total of 20 μl of PCR mix was added to 5 μl of cDNA template, and the amplification was tracked via SYBR Green incorporation by using a Stratagene sequence detection system. cDNA concentration in each sample were normalized by using HPRT. A nontemplate control was also routinely performed. Primers used for gene amplification (designed with the Primer3 software) have been generated.

[8] = tested on: MEFs and NIH3T3; assay: Translation monitoring in MEFs and NIH3T3 exposed to poly I:C; type: cell-based, mouse; settings: lipofected poly I:C, within 4 to 8 hours
Experimental: as §1
as §2, with “(SIGMA). […]” for “(SIGMA).”

[9] = tested on: CHIKV; settings: murine IFN-β added 3 h before infection, 10 MOI, GFP expression at 24 h

## O=C(/C=C/c1ccccc1)NC(NC(=S)Nc1cccc2cccnc12)C(Cl)(Cl)Cl (centres unmarked) [salubrinal]
[1]
  eIF2-α phosphorylation in presence of soluble poly I:C: strongly accentuates eIF2-α phosphorylation
[1]; listed as Salubrinal
  eIF2-α phosphorylation in presence of soluble poly I:C: considerably enhanced
[1]; DCs, salubrinal alone, 75 μM, 4 h before harvesting
  eIF2-α phosphorylation: induced eIF2-α phosphorylation
[2]
  IFN-β secretion by activated DCs: drastically reduced
[3]; DCs stimulated 8 h, salubrinal added 2 h before
  Caspase-3 levels and cleavage, salubrinal with poly I:C or LPS: lighter effect than salubrinal alone
[3]; DCs, salubrinal treatment alone
  Total levels of caspase-3 and its cleaved active product: massive increase
[4]; poly I:C 4 or 8 h, salubrinal added 2 h before stimulation
  Protein synthesis in poly I:C stimulated DCs: strongly reduced

## CO[C@H]([C@H](O)CC(=O)[C@@H](C)[C@@H](O)CC[C@@H](C)[C@@H]1O[C@]2(CC[C@@H](C)[C@H](CC[C@H](C)C(C)=O)O2)CC[C@@H]1C)[C@H](OC(=O)C[C@@H](O)C1=C(C)C(=O)OC1=O)C(C)C [tautomycin]
[1]; DCs, 100 nM tautomycin 4 h before harvesting, with or without poly I:C
  eIF2-α phosphorylation (same experiments as with salubrinal): confirmed

## polyinosinic:polycytidylic acid [poly I:C]
[5]; DCs activated with poly I:C or LPS, 500 μM sodium arsenite for the last 30 min
  Proportion of DCs bearing stress granules upon activation: 15%
[6]
  ATF4 translation (protein level): strongly up-regulated
[7]; 10 μg/ml poly I:C
  ATF4 mRNA expression increase: 2 folds
  CHOP mRNA expression increase: 8 folds
[7]; poly I:C
  CReP mRNA expression: induced only very modestly
  PP1 mRNA expression: only modestly increased
[1]; DCs, soluble poly I:C time course
  P-eIF2-α levels during poly I:C stimulation: gradually reduced
[8]
  Translation in MEFs (wt) and NIH3T3: efficiently induced PKR-dependent translation arrest
[3]; DCs, 8 h, no salubrinal
  Caspase-3 levels and cleavage, stimulus alone: little effect
[4]; after 8 hours of exposure
  Translation in DCs exposed to lipofected poly I:C: translation was not inhibited

## sodium arsenite
[5]
  Proportion of DCs bearing stress granules: ~100%

B1: IFN-β: murine interferon-β added to MEFs before CHIKV infection (protein, UniProt P01575 22-182, looked up)
Interferon beta: INYKQLQLQERTNIRKCQELLEQLNGKINLTYRADFKIPMEMTEKMQKSYTAFAIQEMLQNVFLVFRNNFSSTGWNETIVVRLLDELHQQTVFLKTVLEEKQEERLTWEMSSTALHLKSYYWRVQRYLKLMKYNSYAWMVVRAEIFRNFLIIRRLTRNFQN
[9]
  CHIKV replication in WT and GADD34ΔC/ΔC MEFs: abrogation of viral replication
